Experimental data published in ChEMBL document CHEMBL1201862, “PubChem BioAssay data set” (2004).
Calls of active or inactive are those of the source. Rule as the data show it: actives have a measured IC50 and inactives only a lower limit.

Biological target: Envelope glycoprotein gp160 (Human immunodeficiency virus 1, UniProt Q6QLK5)
Assay: cell-free HIV fusion peptide-binding blockers – biochemical, uHTS, fluorescence dequenching, […] (AID 1986)

Sequence of Envelope glycoprotein gp160 (Q6QLK5 whole entry, the tested form may be a part): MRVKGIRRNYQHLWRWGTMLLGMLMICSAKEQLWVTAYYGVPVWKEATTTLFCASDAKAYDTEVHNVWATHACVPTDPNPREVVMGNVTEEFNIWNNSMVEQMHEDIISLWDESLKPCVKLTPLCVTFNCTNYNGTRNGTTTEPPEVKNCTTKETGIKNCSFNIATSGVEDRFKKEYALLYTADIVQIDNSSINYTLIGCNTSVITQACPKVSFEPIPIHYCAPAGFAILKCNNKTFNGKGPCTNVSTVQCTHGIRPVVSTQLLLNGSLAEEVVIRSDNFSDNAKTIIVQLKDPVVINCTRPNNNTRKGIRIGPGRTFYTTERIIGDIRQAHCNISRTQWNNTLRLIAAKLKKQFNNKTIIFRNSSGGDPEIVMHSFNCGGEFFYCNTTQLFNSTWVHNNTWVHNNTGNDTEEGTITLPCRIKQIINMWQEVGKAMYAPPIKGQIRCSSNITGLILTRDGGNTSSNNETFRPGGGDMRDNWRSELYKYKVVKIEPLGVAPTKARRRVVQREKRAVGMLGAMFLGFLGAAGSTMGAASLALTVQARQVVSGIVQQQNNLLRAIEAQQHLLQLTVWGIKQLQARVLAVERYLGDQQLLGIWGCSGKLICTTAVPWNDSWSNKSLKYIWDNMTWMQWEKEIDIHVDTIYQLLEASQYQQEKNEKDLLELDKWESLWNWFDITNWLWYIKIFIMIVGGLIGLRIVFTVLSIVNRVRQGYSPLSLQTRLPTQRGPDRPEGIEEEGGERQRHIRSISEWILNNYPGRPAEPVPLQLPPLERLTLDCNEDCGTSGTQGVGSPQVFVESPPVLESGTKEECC

CCOc1ccc2nc(NC(=O)CSc3nc(O)c(C#N)c(-c4ccccc4)n3)sc2c1
IC50: 11.1 µM (active)

CCS(=O)(=O)C1=NSC2=NC(=O)/C(=C\c3ccc(OS(=O)(=O)c4ccccc4)c(OC)c3)C(=N)N21
IC50: 16.8 µM (active)

O=C(NN1C(=O)/C(=C/c2ccc(O)cc2)SC1=S)c1ccccc1O
IC50: 23.6 µM (active)
